In ChEMBL document CHEMBL5614367, “Hydroxamic acid hybrids: Histone deacetylase inhibitors with anticancer therapeutic potency” (Eur J Med Chem, 2023):
Each block holds one molecule with its values, some of them ahead of it.

Key:
[1] = Cytotoxicity against HEK293T cells; assay type: toxicity, cell-based, HEK-293T; details: human
[2] = test system: MCF7; test: cells; details: Homo sapiens
[3] = test system: SCC-25; test: Antiproliferative activity against human SCC-25 cells; assay type: functional, cell-based
[4] = molecular target: T1, Protein deacetylase HDAC6 (Homo sapiens, UniProt Q9UBN7); test: Inhibition of HDAC6 (unknown origin)
T1 sequence (Q9UBN7 whole entry): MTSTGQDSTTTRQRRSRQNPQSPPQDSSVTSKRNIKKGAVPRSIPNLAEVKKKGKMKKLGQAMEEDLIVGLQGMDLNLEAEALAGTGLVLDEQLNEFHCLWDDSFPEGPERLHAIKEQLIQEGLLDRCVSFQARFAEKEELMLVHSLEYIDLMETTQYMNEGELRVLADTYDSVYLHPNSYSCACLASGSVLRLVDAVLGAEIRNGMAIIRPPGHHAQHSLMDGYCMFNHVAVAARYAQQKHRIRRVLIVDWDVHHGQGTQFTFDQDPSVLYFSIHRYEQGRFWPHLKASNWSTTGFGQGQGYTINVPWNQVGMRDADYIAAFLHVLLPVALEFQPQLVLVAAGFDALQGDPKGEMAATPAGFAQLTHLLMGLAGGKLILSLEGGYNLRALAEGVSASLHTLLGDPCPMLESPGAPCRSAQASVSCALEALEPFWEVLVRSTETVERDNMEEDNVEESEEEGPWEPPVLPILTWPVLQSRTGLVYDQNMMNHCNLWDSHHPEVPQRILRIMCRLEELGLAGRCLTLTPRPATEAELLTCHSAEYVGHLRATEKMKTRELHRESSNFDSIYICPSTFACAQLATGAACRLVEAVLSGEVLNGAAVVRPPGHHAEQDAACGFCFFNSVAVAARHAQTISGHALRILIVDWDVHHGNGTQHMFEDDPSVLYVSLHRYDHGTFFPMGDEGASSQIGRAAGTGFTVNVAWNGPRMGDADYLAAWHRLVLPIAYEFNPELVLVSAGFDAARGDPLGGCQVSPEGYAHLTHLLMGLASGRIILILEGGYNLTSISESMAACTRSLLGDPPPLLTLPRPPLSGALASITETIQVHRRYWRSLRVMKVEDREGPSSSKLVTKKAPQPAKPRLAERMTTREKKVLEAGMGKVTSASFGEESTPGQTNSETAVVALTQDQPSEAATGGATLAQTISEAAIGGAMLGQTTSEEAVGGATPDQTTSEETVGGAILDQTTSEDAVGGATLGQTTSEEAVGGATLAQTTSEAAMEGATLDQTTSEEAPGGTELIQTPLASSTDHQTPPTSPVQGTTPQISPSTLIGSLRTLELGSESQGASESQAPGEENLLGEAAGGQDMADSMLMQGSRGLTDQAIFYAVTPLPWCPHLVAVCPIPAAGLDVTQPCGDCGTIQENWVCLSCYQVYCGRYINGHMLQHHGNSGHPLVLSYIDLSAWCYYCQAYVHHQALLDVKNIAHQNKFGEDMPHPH

[5] = test system: U-87 MG; test: Antiproliferative activity against human U-87 MG cells; assay type: functional, cell-based, U-87MG ATCC
[6] = molecular target: T2, Histone deacetylase 1 (Homo sapiens, UniProt Q13547); test: Inhibition of HDAC1 (unknown origin)
T2 sequence (Q13547 whole entry): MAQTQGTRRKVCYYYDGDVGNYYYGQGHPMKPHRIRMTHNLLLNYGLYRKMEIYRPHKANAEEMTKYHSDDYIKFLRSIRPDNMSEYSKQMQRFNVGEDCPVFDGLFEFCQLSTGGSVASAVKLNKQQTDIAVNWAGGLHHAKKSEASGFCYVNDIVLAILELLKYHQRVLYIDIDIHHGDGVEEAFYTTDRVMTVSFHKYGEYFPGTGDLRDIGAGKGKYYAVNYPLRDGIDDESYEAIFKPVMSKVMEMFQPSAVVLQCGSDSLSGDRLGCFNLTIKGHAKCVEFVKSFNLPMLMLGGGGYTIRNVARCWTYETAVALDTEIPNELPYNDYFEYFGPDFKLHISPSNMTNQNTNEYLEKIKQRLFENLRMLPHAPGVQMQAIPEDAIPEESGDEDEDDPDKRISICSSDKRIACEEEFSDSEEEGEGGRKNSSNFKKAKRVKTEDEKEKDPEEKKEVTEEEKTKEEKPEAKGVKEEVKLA

[7] = test system: HCT-116; test: cells; details: Homo sapiens
[8] = molecular target: Serine/threonine-protein kinase B-raf (Homo sapiens, UniProt P15056); test: Inhibition of wild type BRAF (unknown origin)
Serine/threonine-protein kinase B-raf, sequence (P15056 whole entry): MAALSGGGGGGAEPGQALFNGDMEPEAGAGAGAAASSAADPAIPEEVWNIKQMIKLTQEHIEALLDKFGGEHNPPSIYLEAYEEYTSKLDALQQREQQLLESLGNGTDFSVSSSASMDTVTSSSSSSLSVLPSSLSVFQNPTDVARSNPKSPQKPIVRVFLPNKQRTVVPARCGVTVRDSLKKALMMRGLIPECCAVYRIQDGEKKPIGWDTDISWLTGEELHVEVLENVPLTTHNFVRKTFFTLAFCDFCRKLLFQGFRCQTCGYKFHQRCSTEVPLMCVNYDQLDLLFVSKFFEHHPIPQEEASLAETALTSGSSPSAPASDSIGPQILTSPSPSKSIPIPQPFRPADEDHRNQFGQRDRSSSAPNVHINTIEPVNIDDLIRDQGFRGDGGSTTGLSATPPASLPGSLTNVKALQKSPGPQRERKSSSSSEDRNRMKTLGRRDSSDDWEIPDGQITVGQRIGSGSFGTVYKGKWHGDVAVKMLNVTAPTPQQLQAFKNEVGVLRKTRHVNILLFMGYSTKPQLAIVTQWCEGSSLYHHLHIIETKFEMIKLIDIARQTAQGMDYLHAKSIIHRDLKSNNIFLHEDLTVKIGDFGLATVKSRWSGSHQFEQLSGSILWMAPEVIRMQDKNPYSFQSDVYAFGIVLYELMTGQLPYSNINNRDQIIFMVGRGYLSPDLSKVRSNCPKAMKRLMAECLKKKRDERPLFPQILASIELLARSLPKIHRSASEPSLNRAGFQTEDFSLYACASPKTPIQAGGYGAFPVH

[9] = test system: MCF7; test: Antiproliferative activity against human MCF7 cells assessed as cell growth inhibition by SRB assay; assay type: functional
[10] = test system: A549; test: Antiproliferative activity against human A549 cells assessed as cell growth inhibition by SRB assay; assay type: functional
[11] = test system: HeLa; test: Antiproliferative activity against human HeLa cells assessed as cell growth inhibition by SRB assay; assay type: functional
[12] = test system: K562; test: Antiproliferative activity against human K562 cells assessed as cell growth inhibition by SRB assay; assay type: functional
[13] = molecular target: T2, Histone deacetylase 1; test: Inhibition of HDAC1 in human HeLa cells incubated for 72 hrs by ELISA; assay type: cell-based
[14] = molecular target: T1, Protein deacetylase HDAC6; test: Inhibition of HDAC6 in human HeLa cells incubated for 72 hrs by ELISA; assay type: cell-based
[15] = test system: HepG2; test: Antiproliferative activity against human HepG2 cells measured after 24 hrs by MTT assay; assay type: functional, cell-based; details: HepG2, 24 h
[16] = test system: HCT-116; test: Antiproliferative activity against human HCT-116 cells measured after 24 hrs by MTT assay; assay type: functional, cell-based; details: HCT-116, 24 h
[17] = test system: HeLa; test: Antiproliferative activity against human HeLa cells measured after 24 hrs by MTT assay; assay type: functional, cell-based
[18] = test system: MCF7; test: Antiproliferative activity against human MCF7 cells measured after 24 hrs by MTT assay; assay type: functional, cell-based; details: MCF7, 24 h
[19] = test system: HCT 116 TP53(-/-); test: cells; assay type: functional, cell-based; details: Homo sapiens, 72 h
[20] = test system: 518A2; test: cells; assay type: functional, cell-based; details: Homo sapiens, 518A2, 72 h
[21] = test system: HCT-116; test: cells; assay type: functional, cell-based; details: Homo sapiens, HCT-116, 72 h
[22] = test system: Huh-7; test: cells; assay type: functional, cell-based; details: Homo sapiens, Huh-7, 72 h
[23] = test system: HepG2; test: cells; assay type: functional, cell-based; details: Homo sapiens, HepG2, 72 h
[24] = molecular target: T1, Protein deacetylase HDAC6; test: Inhibition of HDAC6 (unknown origin) incubated for 30 mins in presence of fluorimetric assay
[25] = test system: PC-3; test: Antiproliferative activity against human PC-3 cells incubated for 48 hrs by colorimetric method; assay type: functional, cell-based; details: PC-3, 48 h
[26] = test system: SW-620; test: Antiproliferative activity against human SW620 cells incubated for 48 hrs by colorimetric method; assay type: functional, cell-based; details: SW-620, 48 h
[27] = test system: NCI-H23; test: Antiproliferative activity against human NCI-H23 cells incubated for 48 hrs by colorimetric method; assay type: functional, cell-based; details: NCI-H23, 48 h
[28] = molecular target: Cytochrome P450 2D6 (Homo sapiens, UniProt P10635); test: Inhibition of CYP2D6 in human liver microsomes; assay type: ADME, Microsome
Cytochrome P450 2D6, sequence (P10635 whole entry): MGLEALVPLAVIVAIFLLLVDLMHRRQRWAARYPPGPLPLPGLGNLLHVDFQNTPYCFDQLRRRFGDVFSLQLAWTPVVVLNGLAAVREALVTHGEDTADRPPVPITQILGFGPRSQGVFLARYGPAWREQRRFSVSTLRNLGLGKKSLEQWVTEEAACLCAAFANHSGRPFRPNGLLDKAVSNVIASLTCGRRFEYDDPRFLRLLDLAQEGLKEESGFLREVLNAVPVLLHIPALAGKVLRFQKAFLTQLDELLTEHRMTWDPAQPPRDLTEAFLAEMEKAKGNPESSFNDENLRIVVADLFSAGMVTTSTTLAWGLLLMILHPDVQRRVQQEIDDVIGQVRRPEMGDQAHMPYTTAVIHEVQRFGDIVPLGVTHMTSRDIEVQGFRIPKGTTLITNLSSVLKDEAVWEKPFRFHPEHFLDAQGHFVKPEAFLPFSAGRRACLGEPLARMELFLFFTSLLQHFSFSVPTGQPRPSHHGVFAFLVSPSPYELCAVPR

[29] = Metabolic stability in rat liver microsomes assessed as half life; assay type: ADME, Microsome
[30] = test system: K562; test: Antiproliferative activity against human K562 cells by MTT assay; assay type: functional, cell-based
[31] = test system: U-937; test: Antiproliferative activity against human U-937 cells by MTT assay; assay type: functional, cell-based
[32] = molecular target: DNA (cytosine-5)-methyltransferase 1 (Homo sapiens, UniProt P26358); test: Inhibition of DNMT1 (unknown origin)
DNA (cytosine-5)-methyltransferase 1, sequence (P26358 whole entry): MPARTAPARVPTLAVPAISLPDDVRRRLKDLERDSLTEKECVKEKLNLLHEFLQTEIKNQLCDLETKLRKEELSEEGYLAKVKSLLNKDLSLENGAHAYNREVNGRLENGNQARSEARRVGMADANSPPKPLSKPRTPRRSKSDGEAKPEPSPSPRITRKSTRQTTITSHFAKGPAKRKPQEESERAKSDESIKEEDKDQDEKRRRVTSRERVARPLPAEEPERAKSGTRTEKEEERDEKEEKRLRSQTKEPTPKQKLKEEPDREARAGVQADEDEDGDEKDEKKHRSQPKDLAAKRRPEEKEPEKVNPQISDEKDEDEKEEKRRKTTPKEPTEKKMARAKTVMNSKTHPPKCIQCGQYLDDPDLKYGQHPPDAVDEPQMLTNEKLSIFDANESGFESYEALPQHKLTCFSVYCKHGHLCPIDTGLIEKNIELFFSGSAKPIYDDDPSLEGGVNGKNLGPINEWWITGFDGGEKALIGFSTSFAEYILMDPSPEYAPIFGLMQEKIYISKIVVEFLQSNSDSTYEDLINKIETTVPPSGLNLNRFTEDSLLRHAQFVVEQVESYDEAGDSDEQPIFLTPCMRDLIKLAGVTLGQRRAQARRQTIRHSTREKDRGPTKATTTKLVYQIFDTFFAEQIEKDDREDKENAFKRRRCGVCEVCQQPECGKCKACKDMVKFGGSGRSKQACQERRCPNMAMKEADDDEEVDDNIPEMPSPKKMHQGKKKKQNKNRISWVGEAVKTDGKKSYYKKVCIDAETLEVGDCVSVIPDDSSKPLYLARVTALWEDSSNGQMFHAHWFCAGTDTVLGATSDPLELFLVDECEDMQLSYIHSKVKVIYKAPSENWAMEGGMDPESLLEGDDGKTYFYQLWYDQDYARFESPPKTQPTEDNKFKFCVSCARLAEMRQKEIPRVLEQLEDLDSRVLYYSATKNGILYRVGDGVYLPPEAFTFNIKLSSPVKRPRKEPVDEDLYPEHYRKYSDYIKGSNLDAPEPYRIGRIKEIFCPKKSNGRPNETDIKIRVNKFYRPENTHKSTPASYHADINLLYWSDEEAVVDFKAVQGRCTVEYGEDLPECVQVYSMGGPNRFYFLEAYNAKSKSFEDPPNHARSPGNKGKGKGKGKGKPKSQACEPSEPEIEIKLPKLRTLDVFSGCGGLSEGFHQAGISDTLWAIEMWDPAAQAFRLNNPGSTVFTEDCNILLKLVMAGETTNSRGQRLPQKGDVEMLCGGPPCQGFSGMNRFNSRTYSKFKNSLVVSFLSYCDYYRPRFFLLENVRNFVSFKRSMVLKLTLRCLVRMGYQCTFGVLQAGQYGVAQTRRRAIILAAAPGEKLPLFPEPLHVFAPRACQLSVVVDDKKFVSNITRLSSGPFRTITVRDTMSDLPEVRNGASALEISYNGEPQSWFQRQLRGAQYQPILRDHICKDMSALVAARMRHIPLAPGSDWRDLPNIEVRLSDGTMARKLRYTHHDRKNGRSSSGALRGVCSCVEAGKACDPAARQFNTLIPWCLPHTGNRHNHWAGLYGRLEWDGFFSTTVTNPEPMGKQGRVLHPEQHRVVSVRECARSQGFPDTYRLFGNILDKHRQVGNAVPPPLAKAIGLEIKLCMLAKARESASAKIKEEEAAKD

[33] = test system: HCT-116; test: Antiproliferative activity against human HCT-116 cells by MTT assay; assay type: functional, cell-based
[34] = test system: HPBALL; test: Cytotoxicity against human HPBALL cells assessed as reduction in cell viability incubated for 72 hrs by MTT assay; assay type: functional, cell-based
[35] = test system: Plasmodium falciparum; test: Antiplasmodial activity against artemisinin-resistant Plasmodium falciparum Dd2 R539T assessed as reduction in parasite growth incubated for 3 days by ELISA analysis; assay type: functional, organism-based; details: 72 h
[36] = molecular target: T1, Protein deacetylase HDAC6; test: Inhibition of human recombinant HDAC6 using ZMAL (Z-Lys(Ac)-AMC as fluorogenic substrate pre-incubated for 30 mins followed by substrate addition and measured for 1 hr by Fluorescence based analysis
[37] = test system: K562; test: Cytotoxicity against human K562 cells assessed as reduction in cell viability incubated for 72 hrs by Cell-titer Glo based analysis; assay type: functional; details: K562, 72 h
[38] = test system: Plasmodium falciparum; test: Antiplasmodial activity against Plasmodium falciparum 3D7 assessed as reduction in parasite growth incubated for 3 days by ELISA analysis; assay type: functional, organism-based; details: 3D7, 72 h
[39] = test system: HL-60; test: Cytotoxicity against human HL-60 cells assessed as reduction in cell viability incubated for 72 hrs by Cell-titer Glo based analysis; assay type: functional; details: HL-60, 72 h
[40] = test system: HL-60; test: Cytotoxicity against human HL-60 cells assessed as reduction in cell viability incubated for 72 hr by MTT assay; assay type: functional, cell-based; details: HL-60, 72 h
[41] = test system: MOLM-13; test: Antiproliferative activity against human MOLM-13 cells assessed as reduction in cell viability incubated for 72 hrs by MTT assay; assay type: functional, cell-based; details: MOLM-13, 72 h
[42] = test system: Plasmodium falciparum; test: Antiplasmodial activity against Plasmodium falciparum Dd2 assessed as reduction in parasite growth incubated for 3 days by ELISA analysis; assay type: functional, organism-based; details: Dd2, 72 h
[43] = test system: NALM-6; test: Cytotoxicity against human NALM-6 cells assessed as reduction in cell viability incubated for 72 hrs by MTT assay; assay type: functional, cell-based; details: NALM-6, 72 h

IC50 [2]: 3110 nM
IC50 [4]: 0.2 nM
IC50 [5]: 3110 nM
SMILES: O=C(NO)c1c(Cl)cc2c(c1Cl)CCN(C(=O)c1cc3ccccc3[nH]1)C2
IC50 [1]: 56900 nM
IC50 [3]: 3110 nM

IC50 [2]: 4010 nM
IC50 [4]: 8.7 nM
IC50 [5]: 4010 nM
SMILES: COc1ccc(-c2ccc(C(=O)N3CCc4c(cc(Cl)c(C(=O)NO)c4Cl)C3)cc2)cc1
IC50 [1]: 51200 nM
IC50 [3]: 4010 nM

IC50 [6]: 15.6 nM
IC50 [7]: 310 nM
IC50 [8]: 1.71 nM
IC50 [4]: 15.6 nM
SMILES: CC(C)(C)c1nc(-c2cccc(NS(=O)(=O)c3c(F)cccc3F)c2F)c(-c2ccnc(NCCCCCCC(=O)NO)n2)s1

GI50 [9]: < 10000 nM
GI50 [10]: < 10000 nM
GI50 [11]: < 10000 nM
GI50 [12]: < 10000 nM
IC50 [13]: 52 nM
IC50 [14]: 52 nM
SMILES: COc1ccc(-c2cn(CCCCCC(=O)NO)c(C)c2C(C)=O)cc1

IC50 [15]: 4660 nM
IC50 [16]: 4660 nM
IC50 [17]: 4660 nM
IC50 [18]: 4660 nM
SMILES: CCCC(CCC)C(=O)O [VALPROIC ACID]

SMILES: COc1ccc(-c2ocnc2-c2cc(OC)c(OC)c(OC)c2)cc1OCCCCCC(=O)NO
IC50 [19]: 610 nM
IC50 [20]: 610 nM
IC50 [21]: 610 nM
IC50 [22]: 610 nM
IC50 [23]: 610 nM
IC50 [4]: ~1000 nM

IC50 [24]: 47 nM
IC50 [25]: 670 nM
IC50 [26]: 670 nM
IC50 [27]: 670 nM
SMILES: O=C(/C=C/c1ccc2c(=O)n(Cc3ccc(Cl)cc3)cnc2c1)NO

IC50 [28]: 8700 nM
IC50 [6]: 2.68 nM
half-life [29]: 6.08 h
IC50 [30]: 7100 nM
IC50 [31]: 7100 nM
IC50 [4]: 8.37 nM
IC50 [32]: 6390 nM
IC50 [33]: 7100 nM
SMILES: Nc1ccn(Cc2ccc(-c3cn(CCCCCCC(=O)NO)nn3)cc2)c(=O)n1

SMILES: C[C@@H]1CC[C@H]2[C@@H](C)C(OCC(=O)NO)C[C@@H]3O[C@]4(C)CC[C@@H]1[C@]32OO4 (some centres not stated)
IC50 [34]: 150 nM
IC50 [35]: 1.9 nM
IC50 [36]: 187 nM
IC50 [37]: 690 nM
IC50 [38]: 1.9 nM
IC50 [39]: 690 nM
IC50 [40]: 690 nM
IC50 [41]: 690 nM
IC50 [42]: 1.9 nM
IC50 [43]: 150 nM
